{"source": "patent US9255295B2", "about": "“Method for evaluating the sensitizing potential of a test compound” (IMMUNOSEARCH, priority 2010, dated 2016)", "key": {"[1]": {"conditions": "official classification: non-sensitizer, irritant, or sensitizing Extreme/Strong/Moderate/Weak; cited from earlier work"}, "[2]": {"tested_on": "genes specific for sensitization (BRAK, CTSS, DAPK2, FABP4, HSP27, IL18, HSP90, IL1R2, TPSAB1, CXCR1, DEFB1, DHFR, EHF, IVL, KRT4, MELANA, NGAL, PDZK1IP1, PI3 …)", "experiment": "Expression of the other (non-ARE) sensitization-specific genes in EPISKIN reconstructed skin (quantitative RT-PCR)", "type": "cell-based, human"}}}
{"compound": "Oc1ccc(O)cc1", "note": "[Hydroquinone]", "values": [{"measurement": "Class", "setting": "[1]", "value": "S"}, {"measurement": "BRAK expression compared to control", "setting": "[2]; 0.1%", "value": 0.7}, {"measurement": "BRAK grade (NUMBER OF GENES)", "setting": "[2]; 0.1%", "value": "0 (if this expression is lower, the grade is 0)"}, {"measurement": "CTSS expression compared to control", "setting": "[2]; 0.1%", "value": 0.7}, {"measurement": "CTSS grade (NUMBER OF GENES)", "setting": "[2]; 0.1%", "value": "0 (if this expression is lower, the grade is 0)"}, {"measurement": "CXCR1 expression compared to control", "setting": "[2]; 0.1%", "value": 2.9}, {"measurement": "CXCR1 grade (NUMBER OF GENES)", "setting": "[2]; 0.1%", "value": "1 (If the expression is greater than 1.3 compared to the control, a grade of 11s given)"}, {"measurement": "DAPK2 expression compared to control", "setting": "[2]; 0.1%", "value": 1.1}, {"measurement": "DAPK2 grade (NUMBER OF GENES)", "setting": "[2]; 0.1%", "value": "0 (if this expression is lower, the grade is 0)"}, {"measurement": "DEFB1 expression compared to control", "setting": "[2]; 0.1%", "value": 1.7}, {"measurement": "DEFB1 grade (NUMBER OF GENES)", "setting": "[2]; 0.1%", "value": "1 (If the expression is greater than 1.3 compared to the control, a grade of 11s given)"}, {"measurement": "DHFR expression compared to control", "setting": "[2]; 0.1%", "value": 0.4}, {"measurement": "DHFR grade (NUMBER OF GENES)", "setting": "[2]; 0.1%", "value": "0 (if this expression is lower, the grade is 0)"}, {"measurement": "EHF expression compared to control", "setting": "[2]; 0.1%", "value": 1.2}, {"measurement": "EHF grade (NUMBER OF GENES)", "setting": "[2]; 0.1%", "value": "0 (if this expression is lower, the grade is 0)"}, {"measurement": "FABP4 expression compared to control", "setting": "[2]; 0.1%", "value": 1.1}, {"measurement": "FABP4 grade (NUMBER OF GENES)", "setting": "[2]; 0.1%", "value": "0 (if this expression is lower, the grade is 0)"}, {"measurement": "HSP27 expression compared to control", "setting": "[2]; 0.1%", "value": 0.8}, {"measurement": "HSP27 grade (NUMBER OF GENES)", "setting": "[2]; 0.1%", "value": "0 (if this expression is lower, the grade is 0)"}, {"measurement": "HSP90 expression compared to control", "setting": "[2]; 0.1%", "value": 1.3}, {"measurement": "HSP90 grade (NUMBER OF GENES)", "setting": "[2]; 0.1%", "value": "0 (if this expression is lower, the grade is 0)"}, {"measurement": "IL18 expression compared to control", "setting": "[2]; 0.1%", "value": 0.8}, {"measurement": "IL18 grade (NUMBER OF GENES)", "setting": "[2]; 0.1%", "value": "0 (if this expression is lower, the grade is 0)"}, {"measurement": "IVL expression compared to control", "setting": "[2]; 0.1%", "value": 1.6}, {"measurement": "IVL grade (NUMBER OF GENES)", "setting": "[2]; 0.1%", "value": "1 (If the expression is greater than 1.3 compared to the control, a grade of 11s given)"}, {"measurement": "KRT4 expression compared to control", "setting": "[2]; 0.1%", "value": 2.0}, {"measurement": "KRT4 grade (NUMBER OF GENES)", "setting": "[2]; 0.1%", "value": "1 (If the expression is greater than 1.3 compared to the control, a grade of 11s given)"}, {"measurement": "MELANA expression compared to control", "setting": "[2]; 0.1%", "value": 0.7}, {"measurement": "MELANA grade (NUMBER OF GENES)", "setting": "[2]; 0.1%", "value": "0 (if this expression is lower, the grade is 0)"}, {"measurement": "NGAL expression compared to control", "setting": "[2]; 0.1%", "value": 1.5}, {"measurement": "NGAL grade (NUMBER OF GENES)", "setting": "[2]; 0.1%", "value": "1 (If the expression is greater than 1.3 compared to the control, a grade of 11s given)"}, {"measurement": "P13 expression compared to control", "setting": "[2]; 0.1%", "value": 1.1}, {"measurement": "P13 grade (NUMBER OF GENES)", "setting": "[2]; 0.1%", "value": "0 (if this expression is lower, the grade is 0)"}, {"measurement": "PDZK1iP1 expression compared to control", "setting": "[2]; 0.1%", "value": 1.2}, {"measurement": "PDZK1iP1 grade (NUMBER OF GENES)", "setting": "[2]; 0.1%", "value": "0 (if this expression is lower, the grade is 0)"}, {"measurement": "SENS >1.3 (NUMBER OF GENES)", "setting": "[2]; 0.1%", "value": 2}, {"measurement": "SERPINB3 expression compared to control", "setting": "[2]; 0.1%", "value": 1.1}, {"measurement": "SERPINB3 grade (NUMBER OF GENES)", "setting": "[2]; 0.1%", "value": "0 (if this expression is lower, the grade is 0)"}, {"measurement": "TOTAL SENS (NUMBER OF GENES)", "setting": "[2]; 0.1%", "value": 5}, {"measurement": "BRAK expression compared to control", "setting": "[2]; 1%", "value": 0.8}, {"measurement": "BRAK grade (NUMBER OF GENES)", "setting": "[2]; 1%", "value": "0 (if this expression is lower, the grade is 0)"}, {"measurement": "CTSS expression compared to control", "setting": "[2]; 1%", "value": 1.2}, {"measurement": "CTSS grade (NUMBER OF GENES)", "setting": "[2]; 1%", "value": "0 (if this expression is lower, the grade is 0)"}, {"measurement": "CXCR1 expression compared to control", "setting": "[2]; 1%", "value": 2.8}, {"measurement": "CXCR1 grade (NUMBER OF GENES)", "setting": "[2]; 1%", "value": "1 (If the expression is greater than 1.3 compared to the control, a grade of 11s given)"}, {"measurement": "DAPK2 expression compared to control", "setting": "[2]; 1%", "value": 1.2}, {"measurement": "DAPK2 grade (NUMBER OF GENES)", "setting": "[2]; 1%", "value": "0 (if this expression is lower, the grade is 0)"}, {"measurement": "DEFB1 expression compared to control", "setting": "[2]; 1%", "value": 1.1}, {"measurement": "DEFB1 grade (NUMBER OF GENES)", "setting": "[2]; 1%", "value": "0 (if this expression is lower, the grade is 0)"}, {"measurement": "DHFR expression compared to control", "setting": "[2]; 1%", "value": 0.8}, {"measurement": "DHFR grade (NUMBER OF GENES)", "setting": "[2]; 1%", "value": "0 (if this expression is lower, the grade is 0)"}, {"measurement": "EHF expression compared to control", "setting": "[2]; 1%", "value": 1.1}, {"measurement": "EHF grade (NUMBER OF GENES)", "setting": "[2]; 1%", "value": "0 (if this expression is lower, the grade is 0)"}, {"measurement": "FABP4 expression compared to control", "setting": "[2]; 1%", "value": 1.1}, {"measurement": "FABP4 grade (NUMBER OF GENES)", "setting": "[2]; 1%", "value": "0 (if this expression is lower, the grade is 0)"}, {"measurement": "HSP27 expression compared to control", "setting": "[2]; 1%", "value": 0.9}, {"measurement": "HSP27 grade (NUMBER OF GENES)", "setting": "[2]; 1%", "value": "0 (if this expression is lower, the grade is 0)"}, {"measurement": "HSP90 expression compared to control", "setting": "[2]; 1%", "value": 1.1}, {"measurement": "HSP90 grade (NUMBER OF GENES)", "setting": "[2]; 1%", "value": "0 (if this expression is lower, the grade is 0)"}, {"measurement": "IL18 expression compared to control", "setting": "[2]; 1%", "value": 0.8}, {"measurement": "IL18 grade (NUMBER OF GENES)", "setting": "[2]; 1%", "value": "0 (if this expression is lower, the grade is 0)"}, {"measurement": "IVL expression compared to control", "setting": "[2]; 1%", "value": 1.5}, {"measurement": "IVL grade (NUMBER OF GENES)", "setting": "[2]; 1%", "value": "1 (If the expression is greater than 1.3 compared to the control, a grade of 11s given)"}, {"measurement": "KRT4 expression compared to control", "setting": "[2]; 1%", "value": 1.5}, {"measurement": "KRT4 grade (NUMBER OF GENES)", "setting": "[2]; 1%", "value": "1 (If the expression is greater than 1.3 compared to the control, a grade of 11s given)"}, {"measurement": "MELANA expression compared to control", "setting": "[2]; 1%", "value": 0.7}, {"measurement": "MELANA grade (NUMBER OF GENES)", "setting": "[2]; 1%", "value": "0 (if this expression is lower, the grade is 0)"}, {"measurement": "NGAL expression compared to control", "setting": "[2]; 1%", "value": 1.7}, {"measurement": "NGAL grade (NUMBER OF GENES)", "setting": "[2]; 1%", "value": "1 (If the expression is greater than 1.3 compared to the control, a grade of 11s given)"}, {"measurement": "P13 expression compared to control", "setting": "[2]; 1%", "value": 1.2}, {"measurement": "P13 grade (NUMBER OF GENES)", "setting": "[2]; 1%", "value": "0 (if this expression is lower, the grade is 0)"}, {"measurement": "PDZK1iP1 expression compared to control", "setting": "[2]; 1%", "value": 1.0}, {"measurement": "PDZK1iP1 grade (NUMBER OF GENES)", "setting": "[2]; 1%", "value": "0 (if this expression is lower, the grade is 0)"}, {"measurement": "SENS >1.3 (NUMBER OF GENES)", "setting": "[2]; 1%", "value": 5}, {"measurement": "SERPINB3 expression compared to control", "setting": "[2]; 1%", "value": 1.0}, {"measurement": "SERPINB3 grade (NUMBER OF GENES)", "setting": "[2]; 1%", "value": "0 (if this expression is lower, the grade is 0)"}]}
